SMILES strings stand for the structures. pIC50: −log10 of the molar value.

One assay has as its system HeLa. The assay can be described thus: Proliferation assay (crystal violet), HeLa. Type of assay: cell-based. As to conditions: Homo sapiens, 96 h, 4 days, read-out: Inhibition of proliferation IC50 HeLa. Here is the method: Cultivated tumor cells (cells were ordered from ATCC, except HeLa-MaTu and HeLa-MaTu-ADR, which were ordered from EPO-GmbH, Berlin) were plated at a density of 1000 to 5000 cells/well, depending on the growth rate of the respective cell line, in a 96-well multititer plate in 200 μL of their respective growth medium supplemented 10% fetal calf serum. After 24 hours, the cells of one plate (zero-point plate) were stained with crystal violet (see below), while the medium of the other plates was replaced by fresh culture medium (200 μl), to which the test substances were added in various concentrations (0 μM, as well as in the range of 0.001-10 μM; the final concentration of the solvent dimethyl sulfoxide was 0.5%). The cells were incubated for 4 days in the presence of test substances. Cell proliferation was determined by staining the cells with crystal violet: the cells were fixed by adding 20 μl/measuring point of an 11% glutaric aldehyde solution for 15 minutes at room temperature. After three washing cycles of the fixed cells with water, the plates were dried at room temperature. The cells were stained by adding 100 μl/measuring point of a 0.1% crystal violet solution (pH 3.0). After three washing cycles of the stained cells with water, the plates were dried at room temperature. The dye was dissolved by adding 100 μl/measuring point of a 10% acetic acid solution. Absorption was determined by photometry at a wavelength of 595 nm. The change of cell number, in percent, was calculated by normalization of the measured values to the absorption values of the zero-point plate (=0%) and the absorption of the untreated (0 μm) cells (=100%). The IC50 values were determined by means of a 4 parameter fit.

Another assay deals with CDK2/CycE (Homo sapiens (Human), UniProt P24941). Description: CDK2/CycE kinase assay (TR-FRET). The class given is biochemical. As to conditions: 10 μM ATP; read-out: CDK2 avg (IC50 [mol/l]). The source says:
CDK2/CycE-inhibitory activity of compounds of the present invention was quantified employing the CDK2/CycE TR-FRET assay as described in the following paragraphs.
Recombinant fusion proteins of GST and human CDK2 and of GST and human CycE, expressed in insect cells (Sf9) and purified by Glutathion-Sepharose affinity chromatography, were purchased from ProQinase GmbH (Freiburg, Germany). As substrate for the kinase reaction biotinylated peptide biotin-Ttds-YISPLKSPYKISEG (C-terminus in amid form) was used which can be purchased e.g. form the company JERINI peptide technologies (Berlin, Germany).
For the assay 50 nl of a 100 fold concentrated solution of the test compound in DMSO was pipetted into a black low volume 384 well microtiter plate (Greiner Bio-One, Frickenhausen, Germany), 2 μl of a solution of CDK2/CycE in aqueous assay buffer [50 mM Tris/HCl pH 8.0, 10 mM MgCl2, 1.0 mM dithiothreitol, 0.1 mM sodium ortho-vanadate, 0.01% (v/v) Nonidet-P40 (Sigma)] were added and the mixture was incubated for 15 min at 22° C. to allow pre-binding of the test compounds to the enzyme before the start of the kinase reaction. Then the kinase reaction was started by the addition of 3 μl of a solution of adenosine-tri-phosphate (ATP, 16.7 μM=>final conc. in the 5 μl assay volume is 10 μM) and substrate (1.25 μM=>final conc. in the 5 μl assay volume is 0.75 μM) in assay buffer and the resulting mixture was incubated for a reaction time of 25 min at 22° C. The concentration of CDK2/CycE was adjusted depending of the activity of the enzyme lot and was chosen appropriate to have the assay in the linear range, typical concentrations were in the range of 130 ng/ml. The reaction was stopped by the addition of 5 μl of a solution of TR-FRET detection reagents (0.2 μM streptavidine-XL665 [Cisbio Bioassays, Codolet, France] and 1 nM anti-RB(pSer807/pSer811)-antibody from BD Pharmingen [#558389] and 1.2 nM LANCE EU-W1024 labeled anti-mouse IgG antibody [Perkin-Elmer, product no. AD0077, as an alternative a Terbium-cryptate-labeled anti-mouse IgG antibody from Cisbio Bioassays can be used]) in an aqueous EDTA-solution (100 mM EDTA, 0.2% (w/v) bovine serum albumin in 100 mM HEPES/NaOH pH 7.0).
The resulting mixture was incubated 1 h at 22° C. to allow the formation of complex between the phosphorylated biotinylated peptide and the detection reagents. Subsequently the amount of phosphorylated substrate was evaluated by measurement of the resonance energy transfer from the Eu-chelate to the streptavidine-XL. Therefore, the fluorescence emissions at 620 nm and 665 nm after excitation at 350 nm was measured in a TR-FRET reader, e.g. a Rubystar (BMG Labtechnologies, Offenburg, Germany) or a Viewlux (Perkin-Elmer). The ratio of the emissions at 665 nm and at […] was taken as the measure for the amount of phosphorylated substrate. The data were normalised (enzyme reaction without inhibitor=0% inhibition, all other assay components but no enzyme=100% inhibition).
Background: TR-FRET usually uses a lanthanide donor and a delayed reading to cut background.

As for `CCc1ccccc1NC(=O)c1c(C)nsc1Nc1cnccn1` [Example 1, N-(2-Ethylphenyl)-3-methyl-5-(pyrazin-2-ylamino)-1,2-thiazole-4-carboxamide], the pIC50 was 5.06 with HeLa and less than 4.70 at CDK2/CycE.
The matching figures for `CCc1ccccc1NC(=O)c1c(C)nsc1Nc1ccnc(C#N)n1` [Example 6, 5-[(2-Cyanopyrimidin-4-yl)amino]-N-(2-ethylphenyl)-3-methyl-1,2-thiazole-4-carboxamide]: 5.49 and less than 4.70.
For `CCc1ccccc1NC(=O)c1c(C)nsc1Nc1ccc(C#N)cn1` [Example 7, 5-[(5-Cyanopyridin-2-yl)amino]-N-(2-ethylphenyl)-3-methyl-1,2-thiazole-4-carboxamide], the values for the pIC50 in the assay with HeLa and on CDK2/CycE were 5.52 and less than 4.70, respectively.
For the compound `CCc1ccccc1NC(=O)c1c(C)nsc1Nc1ncccc1C#N` [Example 8, 5-[(3-Cyanopyridin-2-yl)amino]-N-(2-ethylphenyl)-3-methyl-1,2-thiazole-4-carboxamide], the values for the pIC50 with HeLa and on CDK2/CycE were less than 5.00 and less than 4.70, respectively.
For `CCc1ccccc1NC(=O)c1c(C)nsc1Nc1cc(-n2ccnc2)ncn1` [Example 9, N-(2-Ethylphenyl)-5-{[6-(1H-imidazol-1-yl)pyrimidin-4-yl]amino}-3-methyl-1,2-thiazole-4-carboxamide], in that order: 5.62 and less than 4.70.
For `CCc1ccccc1NC(=O)c1c(C)nsc1Nc1ncnc2ccccc12` [Example 10, N-(2-Ethylphenyl)-3-methyl-5-(quinazolin-4-ylamino)-1,2-thiazole-4-carboxamide], the pIC50 in the assay with HeLa was 5.14; at CDK2/CycE, less than 4.70.
For `CCc1ccccc1NC(=O)c1c(C)nsc1Nc1nc2ccccc2o1` [Example 11, 5-(1,3-Benzoxazol-2-ylamino)-N-(2-ethylphenyl)-3-methyl-1,2-thiazole-4-carboxamide], in that order: 5.43 and less than 4.70.
For `CCc1ccccc1NC(=O)c1c(C)nsc1Nc1ncnc2sccc12` [Example 12, N-(2-Ethylphenyl)-3-methyl-5-(thieno[2,3-d]pyrimidin-4-ylamino)-1,2-thiazole-4-carboxamide], in that order: 5.02 and less than 4.70.
The matching figures for `CCc1ccccc1NC(=O)c1c(C)nsc1Nc1ncnc2ccsc12` [Example 13, N-(2-Ethylphenyl)-3-methyl-5-(thieno[3,2-d]pyrimidin-4-ylamino)-1,2-thiazole-4-carboxamide]: less than 5.00 and less than 4.70.
In the case of `CCc1ccccc1NC(=O)c1c(C)nsc1Nc1nc2ccccc2s1` [Example 14, 5-(1,3-Benzothiazol-2-ylamino)-N-(2-ethylphenyl)-3-methyl-1,2-thiazole-4-carboxamide], the pIC50 in the assay on HeLa was 6.00; at CDK2/CycE it was less than 4.70.
On to `CCc1ccccc1NC(=O)c1c(C)nsc1Nc1cc(NC)ncn1` [Example 15, N-(2-Ethylphenyl)-3-methyl-5-{[6-(methylamino)pyrimidin-4-yl]amino}-1,2-thiazole-4-carboxamide], for which the values for the pIC50 with HeLa and on CDK2/CycE were less than 5.00 and less than 4.70, respectively.
The matching figures for `CCc1ccccc1NC(=O)c1c(C)nsc1Nc1nccc(OC)n1` [Example 16, N-(2-Ethylphenyl)-5-[(4-methoxypyrimidin-2-yl)amino]-3-methyl-1,2-thiazole-4-carboxamide]: less than 5.00 and less than 4.70.
For `CCc1ccnc(Nc2snc(C)c2C(=O)Nc2ccccc2CC)n1` [Example 17, N-(2-Ethylphenyl)-5-[(4-ethylpyrimidin-2-yl)amino]-3-methyl-1,2-thiazole-4-carboxamide], in that order: less than 5.00 and less than 4.70.
For `CCc1ccccc1NC(=O)c1c(C)nsc1Nc1cc(C(F)(F)F)ccn1` [Example 18, N-(2-Ethylphenyl)-3-methyl-5-{[4-(trifluoromethyl)pyridin-2-yl]amino}-1,2-thiazole-4-carboxamide], in that order: 5.12 and less than 4.70.
On to `CCc1ccccc1NC(=O)c1c(C)nsc1Nc1cnc2ccccc2n1` [Example 19, N-(2-Ethylphenyl)-3-methyl-5-(quinoxalin-2-ylamino)-1,2-thiazole-4-carboxamide], for which the pIC50 is 5.60 in the assay on HeLa and less than 4.70 on CDK2/CycE.
For `CCc1ccccc1NC(=O)c1c(C)nsc1Nc1cnc2cc(F)ccc2n1` [Example 20, N-(2-Ethylphenyl)-5-[(6-fluoroquinoxalin-2-yl)amino]-3-methyl-1,2-thiazole-4-carboxamide], in that order: 5.96 and less than 4.70.
In the case of `CCc1ccccc1NC(=O)c1c(C)nsc1Nc1nc2ccccc2nc1C` [Example 21, N-(2-Ethylphenyl)-3-methyl-5-[(3-methylquinoxalin-2-yl)amino]-1,2-thiazole-4-carboxamide], the pIC50 in the assay with HeLa was less than 5.00; on CDK2/CycE it was less than 4.70.
For `COc1ccc(NC(=O)c2c(C)nsc2Nc2cnc3cccc(C)c3n2)cn1` [Example 22, N-(6-methoxypyridin-3-yl)-3-methyl-5-[(8-methylquinoxalin-2-yl)amino]-1,2-thiazole-4-carboxamide], in that order: 5.89 and less than 4.70.
For `COc1ccc(NC(=O)c2c(C)nsc2Nc2cnc3cc(Cl)ccc3n2)cn1` [Example 23, 5-[(6-Chloroquinoxalin-2-yl)amino]-N-(6-methoxypyridin-3-yl)-3-methyl-1,2-thiazole-4-carboxamide], in that order: 5.74 and less than 4.70.
Take `COc1ccc(NC(=O)c2c(C)nsc2Nc2nccnc2C#N)cn1` [Example 24, 5-[(3-Cyanopyrazin-2-yl)amino]-N-(6-methoxypyridin-3-yl)-3-methyl-1,2-thiazole-4-carboxamide]: the pIC50 is less than 5.00 with HeLa and less than 4.70 at CDK2/CycE.
`COc1ccc(NC(=O)c2c(C)nsc2Nc2cc(C#N)ccn2)cn1` [Example 25, 5-[(4-Cyanopyridin-2-yl)amino]-N-(6-methoxypyridin-3-yl)-3-methyl-1,2-thiazole-4-carboxamide]: the pIC50 is less than 5.00 in the assay on HeLa and less than 4.70 at CDK2/CycE.
With `CCOC(=O)c1sc(Nc2snc(C)c2C(=O)Nc2ccccc2CC)nc1C` [Example 26, Ethyl 2-({4-[(2-ethylphenyl)carbamoyl]-3-methyl-1,2-thiazol-5-yl}amino)-4-methyl-1,3-thiazole-5-carboxylate], the pIC50 is 5.36 with HeLa and less than 4.70 at CDK2/CycE.
The matching figures for `Cc1nsc(Nc2cc(C#N)ccn2)c1C(=O)Nc1ccc(F)c(F)c1` [Example 27, 5-[(4-Cyanopyridin-2-yl)amino]-N-(3,4-difluorophenyl)-3-methyl-1,2-thiazole-4-carboxamide]: 5.70 and less than 4.70.

The record behind these values is patent publication US9682995B2, “Amino-substituted isothiazoles” (BAYER PHARMA AKTIENGESELLSCHAFT, priority 2013, dated 2017).
